The target in assay [1] is T1, Mu-type opioid receptor (Homo sapiens, UniProt P35372). As to the kind of experiment: Displacement of [3H]DAMGO from human recombinant mu opioid receptor expressed in CHO cell membranes after 60 mins by scintillation counting method.
The target of assay [2] is T2, Kappa-type opioid receptor (Homo sapiens, UniProt P41145). The experiment in a line: Displacement of [3H]U69593 from human recombinant kappa opioid receptor expressed in CHO cell membranes after 60 mins by scintillation counting method.
T2 sequence (P41145 whole entry): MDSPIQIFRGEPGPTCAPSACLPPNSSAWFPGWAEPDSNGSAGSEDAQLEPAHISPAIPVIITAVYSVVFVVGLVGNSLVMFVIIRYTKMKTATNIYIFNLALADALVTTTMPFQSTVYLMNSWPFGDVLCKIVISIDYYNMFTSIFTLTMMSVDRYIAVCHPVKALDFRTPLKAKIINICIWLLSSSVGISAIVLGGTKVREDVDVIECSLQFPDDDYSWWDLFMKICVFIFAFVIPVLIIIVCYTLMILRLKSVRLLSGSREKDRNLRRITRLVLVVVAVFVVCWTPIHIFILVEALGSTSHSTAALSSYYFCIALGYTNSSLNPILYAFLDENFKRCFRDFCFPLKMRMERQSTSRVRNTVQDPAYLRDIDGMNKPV
Assay [3] deals with T3, Delta-type opioid receptor (Homo sapiens, UniProt P41143). The experiment in a line: Displacement of [3H]Cl-DPDPE from human recombinant delta opioid receptor expressed in CHO cell membranes after 60 mins by scintillation counting method. (Loss of bound radioactivity is the signal in a displacement assay; it reports binding, not function.)
T3 sequence (P41143 whole entry): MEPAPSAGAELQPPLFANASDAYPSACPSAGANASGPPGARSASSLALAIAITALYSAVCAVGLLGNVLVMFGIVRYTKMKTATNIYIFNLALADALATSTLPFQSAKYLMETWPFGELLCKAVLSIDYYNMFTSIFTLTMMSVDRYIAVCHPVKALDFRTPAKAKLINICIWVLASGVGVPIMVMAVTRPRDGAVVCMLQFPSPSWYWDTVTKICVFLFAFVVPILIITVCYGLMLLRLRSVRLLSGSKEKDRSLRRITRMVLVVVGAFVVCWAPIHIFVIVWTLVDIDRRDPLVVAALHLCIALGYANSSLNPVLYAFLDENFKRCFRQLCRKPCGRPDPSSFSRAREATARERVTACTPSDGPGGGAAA
Assay [4] deals with T1, Mu-type opioid receptor. As to the kind of experiment: Agonist activity at human recombinant mu opioid receptor expressed in CHO cell membranes after 60 mins by [35S]GTPgammaS binding assay. Format: functional. (Binding of GTPγS marks nucleotide exchange on a G protein.)
Assay [5] concerns the target T1, Mu-type opioid receptor. The experiment in a line: Agonist activity at human recombinant mu opioid receptor expressed in CHO cell membranes after 60 mins by [35S]GTPgammaS binding assay relative to DAMGO. In kind it is functional.
Assay [6] has as its target T2, Kappa-type opioid receptor. The experiment in a line: Antagonist activity at human recombinant kappa opioid receptor expressed in CHO cell membranes assessed as inhibition of U69593-induced response after 60 mins by [35S]GTPgammaS binding assay. In kind it is functional.
The target in assay [7] is T3, Delta-type opioid receptor. The experiment in a line: Agonist activity at human recombinant delta opioid receptor expressed in CHO cell membranes after 60 mins by [35S]GTPgammaS binding assay. In kind it is functional.
In assay [8] the target is T3, Delta-type opioid receptor. As to the kind of experiment: Agonist activity at human recombinant delta opioid receptor expressed in CHO cell membranes after 60 mins by [35S]GTPgammaS binding assay relative to DPDPE. Format: functional.
Assay [9] addresses T1, Mu-type opioid receptor. As to the kind of experiment: Antagonist activity at human recombinant mu opioid receptor expressed in CHO cell membranes assessed as inhibition of DAMGO-induced response after 60 mins by [35S]GTPgammaS binding assay. In kind it is functional.
Assay [10] addresses T3, Delta-type opioid receptor. The experiment in a line: Antagonist activity at human recombinant delta opioid receptor expressed in CHO cell membranes assessed as inhibition of DPDPE-induced response after 60 mins by [35S]GTPgammaS binding assay. Format: functional.
Assay [11] is filed under the species Homo sapiens. The experiment in a line: Selectivity for human recombinant delta opioid receptor over human mu opioid receptor.
Assay [12] is filed under the species Homo sapiens. The experiment in a line: Selectivity for human recombinant delta opioid receptor over human kappa opioid receptor.
In assay [13] the target is T4, Nociceptin receptor (Homo sapiens, UniProt P41146). As to the kind of experiment: Displacement of [3H]nociceptin from human recombinant NOP receptor expressed in CHO cell membranes after 60 mins by scintillation counting method.
T4 sequence (P41146 whole entry): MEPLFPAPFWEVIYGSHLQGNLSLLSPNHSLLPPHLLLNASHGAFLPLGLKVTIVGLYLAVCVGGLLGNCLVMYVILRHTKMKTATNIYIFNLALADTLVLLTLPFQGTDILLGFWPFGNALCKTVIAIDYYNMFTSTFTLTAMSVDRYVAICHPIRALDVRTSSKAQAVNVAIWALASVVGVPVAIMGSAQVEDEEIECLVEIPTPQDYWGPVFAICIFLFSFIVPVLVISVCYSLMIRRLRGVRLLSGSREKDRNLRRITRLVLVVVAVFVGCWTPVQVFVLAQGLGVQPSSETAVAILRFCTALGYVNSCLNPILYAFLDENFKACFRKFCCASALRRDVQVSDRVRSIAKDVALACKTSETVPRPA
Assay [14] concerns the target T1, Mu-type opioid receptor. The experiment in a line: Agonist activity at human recombinant mu opioid receptor expressed in CHO cell membranes at 10 uM after 60 mins by [35S]GTPgammaS binding assay relative to DAMGO. Format: functional.
In assay [15] the target is T2, Kappa-type opioid receptor. As to the kind of experiment: Agonist activity at human recombinant kappa opioid receptor expressed in CHO cell membranes at 10 uM after 60 mins by [35S]GTPgammaS binding assay relative to U69593. Format: functional.
For assay [16], the target named is T4, Nociceptin receptor. The experiment in a line: Agonist activity at human recombinant NOPR receptor expressed in CHO cell membranes at 10 uM after 60 mins by [35S]GTPgammaS binding assay relative to nociceptin. Format: functional.
For assay [17], the species on record is Homo sapiens. The experiment in a line: Selectivity for human recombinant mu opioid receptor over human delta opioid receptor.
Assay [18] is filed under the species Homo sapiens. The experiment in a line: Selectivity for human recombinant mu opioid receptor over human kappa opioid receptor.
Assay [19] addresses T2, Kappa-type opioid receptor. The experiment in a line: Agonist activity at human recombinant kappa opioid receptor expressed in CHO cell membranes after 60 mins by [35S]GTPgammaS binding assay. Format: functional.
Assay [20] concerns the target T2, Kappa-type opioid receptor. As to the kind of experiment: Agonist activity at human recombinant kappa opioid receptor expressed in CHO cell membranes after 60 mins by [35S]GTPgammaS binding assay relative to U69593. Format: functional.

The term pKi denotes the negative decadic logarithm of the Ki, by convention in mol/L. Usually pEC50 stands for −log10 of the EC50, conventionally taken in molar units.

pEC50, pKi: −log10 of the molar value.

T1 sequence (P35372 whole entry): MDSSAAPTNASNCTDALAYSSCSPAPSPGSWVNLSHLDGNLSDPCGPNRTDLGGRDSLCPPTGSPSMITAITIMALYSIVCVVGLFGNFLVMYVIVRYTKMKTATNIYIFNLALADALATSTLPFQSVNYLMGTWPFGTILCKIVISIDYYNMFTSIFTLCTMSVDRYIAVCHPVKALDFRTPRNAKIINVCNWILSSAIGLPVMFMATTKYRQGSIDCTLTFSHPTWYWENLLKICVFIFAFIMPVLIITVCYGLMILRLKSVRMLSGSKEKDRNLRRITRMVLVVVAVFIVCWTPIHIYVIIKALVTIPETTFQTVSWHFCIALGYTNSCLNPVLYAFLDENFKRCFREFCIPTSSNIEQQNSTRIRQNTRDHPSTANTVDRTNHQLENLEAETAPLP

As to `CN1C(=O)[C@H](CCO)CC2=C1[C@@H]1Oc3c(O)ccc4c3[C@@]13CCN(C)[C@H](C4)[C@]3(O)C2`, the values for the pKi (on Mu-type opioid receptor [1]; in assay [2]; in assay [3]) were 8.63, 7.31 and 8.44, respectively. Besides, the pEC50 on Mu-type opioid receptor [4] was 6.79; in assay [7], 7.93. Further, the Activity on Mu-type opioid receptor [5] came out at 36%; in [8], 66%. Also, the Ke in assay [6] is 321 nM.

As to `CN1CC[C@]23c4c5ccc(O)c4O[C@H]2C2=C(C[C@@H](CCO)C(=O)N2Cc2ccccc2)C[C@@]3(O)[C@H]1C5`, the pKi is 8.69 at Mu-type opioid receptor [1], 8.33 in [2] and 8.99 in assay [3]. Moreover, the Ke was 32.9 nM at Mu-type opioid receptor [9] and 29.3 nM in assay [6]. Moreover, the pEC50 in [7] was 8.63. In addition, in assay [8], the Activity was 73%.

Consider `O=C1[C@H](CCO)CC2=C([C@@H]3Oc4c(O)ccc5c4[C@@]34CCN(CC3CC3)[C@H](C5)[C@]4(O)C2)N1Cc1ccccc1`, for which the results for the pKi (on Mu-type opioid receptor [1]; in assay [2]; in assay [3]) were 9.37, 8.89 and 9.15, respectively. Also, the results for the Ke (at Mu-type opioid receptor [9]; in [6]; in assay [10]) were 0.35 nM, 0.73 nM and 0.47 nM, respectively.

As for `Cc1[nH]c2c(c1Cc1ccccc1)C[C@@]1(O)[C@H]3Cc4ccc(O)c5c4[C@@]1(CCN3CC1CC1)[C@H]2O5`, the Selectivity ratio in the assay filed under Homo sapiens [11] and in the assay filed under Homo sapiens [12] was 40 throughout.

In the case of `O=C1CCC2=C([C@@H]3Oc4c(O)ccc5c4[C@@]34CCN(CC3CC3)[C@H](C5)[C@]4(O)C2)N1CCc1ccccc1`, at Nociceptin receptor [13], the negative logarithm of the Ki (pKi) is 5.82. Further, the Smax was 1% at Mu-type opioid receptor [14], -10% in [15] and 5% on Nociceptin receptor [16].

With `O=C1[C@@H](CCO)CC2=C([C@@H]3Oc4c(O)ccc5c4[C@@]34CCN(CC3CC3)[C@H](C5)[C@]4(O)C2)N1Cc1ccccc1`, the pKi is 8.81 on Mu-type opioid receptor [1], 8.56 in assay [2] and 8.62 in [3]. The Ke at Mu-type opioid receptor [9] turned out to be 1.62 nM; in assay [6], 2.22 nM; in [10], 0.93 nM.

On to `C[C@H]1CC2=C([C@@H]3Oc4c(O)ccc5c4[C@@]34CCN(CC3CC3)[C@H](C5)[C@]4(O)C2)N(Cc2ccccc2)C1=O`, for which the negative logarithm of the Ki (pKi) at Mu-type opioid receptor [1] is 9.38; in [2], 9.15; in assay [3] it was 8.80. For the same compound, the Ke came to 0.6 nM on Mu-type opioid receptor [9], 2.03 nM in [6] and 0.57 nM in assay [10].

Take `CN1C(=O)CCC2=C1[C@@H]1Oc3c(O)ccc4c3[C@@]13CCN(C)[C@H](C4)[C@]3(O)C2`: the values for the pKi (on Mu-type opioid receptor [1]; in assay [2]; in assay [3]) were 8.91, 7.69 and 8.03, respectively. Also, the pEC50 on Mu-type opioid receptor [4] is 7.10; in [7], 7.59. The figures for the Activity (at Mu-type opioid receptor [5]; in assay [8]) were 40% and 67%, respectively.

With `CN1CC[C@]23c4c5ccc(O)c4O[C@H]2C2=C(CCC(=O)N2Cc2ccccc2)C[C@@]3(O)[C@H]1C5`, the pKi on Mu-type opioid receptor [1] was 9.54; in [2], 8.70; in assay [3], 9.04. Further, the values for the negative logarithm of the EC50 (pEC50) (on Mu-type opioid receptor [4]; in assay [7]) were 8.30 and 8.52, respectively. In addition, on Mu-type opioid receptor [5], the Activity stood at 52%. Also, in assay [6], the Ke is 21.3 nM. Besides, the Ratio Ki in the assay listed under Homo sapiens [17] and in the assay filed under Homo sapiens [18] was 3 each time.

For `O=C1CCC2=C([C@@H]3Oc4c(O)ccc5c4[C@@]34CCN(CC3CC3)[C@H](C5)[C@]4(O)C2)N1Cc1cccc(F)c1`, the values for the Smax (on Mu-type opioid receptor [14]; in [15]; on Nociceptin receptor [16]) were -1%, -9% and 7%, respectively.

Consider `C=CCN1CC[C@]23c4c5ccc(O)c4O[C@H]2C2=C(CCC(=O)N2CCc2ccccc2)C[C@@]3(O)[C@H]1C5`, for which the Smax on Mu-type opioid receptor [14] was -2%; in [15], -15%; on Nociceptin receptor [16], 4%.

On to `CCOC(=O)Cc1c2c(n(Cc3ccccc3)c1O)[C@@H]1Oc3c(O)ccc4c3[C@@]13CCN(C)[C@H](C4)[C@]3(O)C2`, for which the pKi on Mu-type opioid receptor [1] is 7.88; in [2], 6.80; in assay [3], 7.09. For the same compound, the negative logarithm of the EC50 (pEC50) on Mu-type opioid receptor [4] was 7.15; in assay [19], 6.36; in assay [7], 7.37. Besides, the values for the Activity (on Mu-type opioid receptor [5]; in assay [20]; in assay [8]) were 86%, 23% and 74%, respectively.

Turning to `CN1CC[C@]23c4c5ccc(O)c4O[C@H]2C2=C(C[C@H](CCO)C(=O)N2Cc2ccccc2)C[C@@]3(O)[C@H]1C5`, the pKi on Mu-type opioid receptor [1] is 8.52; in [2], 7.81; in [3] it was 8.55. For the same compound, the pEC50 is 7.02 on Mu-type opioid receptor [4] and 7.97 in assay [7]. Further, the Activity on Mu-type opioid receptor [5] came out at 36%; in [8] it was 68%. Besides, the Ke in assay [6] was 16.8 nM.

For the compound `O=C1CCC2=C([C@@H]3Oc4c(O)ccc5c4[C@@]34CCN(CC3CC3)[C@H](C5)[C@]4(O)C2)N1Cc1ccccc1`, the pKi was 9.74 on Mu-type opioid receptor [1], 9.82 in assay [2], 9.44 in assay [3] and 5.89 on Nociceptin receptor [13]. The Smax is -1% on Mu-type opioid receptor [14], -20% in [15] and 12% at Nociceptin receptor [16].

`O=C1CCC2=C([C@@H]3Oc4c(O)ccc5c4[C@@]34CCN(CC3CC3)[C@H](C5)[C@]4(O)C2)N1CC1CCCCC1`: the pKi at Mu-type opioid receptor [1] was 9.96; in assay [2], 9.48; in [3], 9.55; at Nociceptin receptor [13], 6.06. Moreover, the Smax at Mu-type opioid receptor [14] is -1%; in assay [15] it was -5%; on Nociceptin receptor [16] it was 5%.

As to `CCOC(=O)Cc1c2c(n(Cc3ccccc3)c1O)[C@@H]1Oc3c(O)ccc4c3[C@@]13CCN(CC1CC1)[C@H](C4)[C@]3(O)C2`, the pKi is 8.06 at Mu-type opioid receptor [1], 8.32 in [2] and 8.00 in assay [3]. Also, the Ke on Mu-type opioid receptor [9] stood at 6.61 nM; in [10], 6.79 nM.

`CN1C(=O)[C@@H](CCO)CC2=C1[C@@H]1Oc3c(O)ccc4c3[C@@]13CCN(C)[C@H](C4)[C@]3(O)C2`: the pKi was 7.89 on Mu-type opioid receptor [1], 6.74 in assay [2] and 8.03 in [3]. Further, the pEC50 was 6.15 at Mu-type opioid receptor [4] and 7.51 in assay [7]. Besides, the figures for the Activity (on Mu-type opioid receptor [5]; in assay [8]) were 37% and 80%, respectively. Also, the Ke in assay [6] worked out at 2140 nM.

Turning to `O=C1CCC2=C([C@@H]3Oc4c(O)ccc5c4[C@@]34CCN(CC3CC3)[C@H](C5)[C@]4(O)C2)N1Cc1cccc(Cl)c1`, the Smax at Mu-type opioid receptor [14] was -1%; in [15], -11%; on Nociceptin receptor [16], 7%.

As for `C[C@@H]1CC2=C([C@@H]3Oc4c(O)ccc5c4[C@@]34CCN(CC3CC3)[C@H](C5)[C@]4(O)C2)N(Cc2ccccc2)C1=O`, the pKi at Mu-type opioid receptor [1] is 9.25; in assay [2], 9.02; in assay [3], 9.07. Further, the Ke on Mu-type opioid receptor [9] came to 0.5 nM; in assay [6], 0.23 nM; in [10], 0.23 nM.

The values are drawn from ChEMBL document CHEMBL3352469, “Pyrrolo- and pyridomorphinans: non-selective opioid antagonists and delta opioid agonists/mu opioid partial agonists” (Bioorg Med Chem, 2014).
